Experimental data published in patent US20220000110A1, “COMPOSITIONS COMPRISING PYRIDINE CARBOXYLATE HERBICIDES AND CELLULOSE BIOSYNTHESIS INHIBITOR HERBICIDES” (priority 2018, published 2022).
Read-outs that look alike come from different tables or passages of the source.

How the values were obtained:
Assay type in all cases: in vivo
[1] = tested on: Salsola kali (Russian thistle); test: Greenhouse postemergence herbicidal effect, visual injury after 20-22 d; details: SASKR
From the text: (§1) Greenhouse Trial Methodology—Evaluation of Postemergence Herbicidal Effect
(§2) Seeds of the desired test plant species were planted in a 90:10% v/v (volume/volume) mixture of PRO-MIX® BX (Premier Tech Horticulture, Quakertown, Pa., USA) and PROFILE® GREENS GRADE™ (Profile Products LLC, Buffalo Grove, Ill., USA) planting mixture, which typically has a pH of 5.2 to 6.2 and an organic matter content of at least 50 percent, in plastic pots with a surface area of 103.2 square centimeters (cm^2). In some aspects, to help ensure good germination and healthy plants, a fungicide treatment and/or other chemical or physical treatment was applied. The plants were grown for 7-36 days (d) in a greenhouse with an approximate 14-hour (h) photoperiod which was maintained at about 23° C. during the day and 22° C. during the night. Nutrients and water were added on a regular basis and supplemental lighting was provided with overhead metal halide 1000-Watt lamps as necessary. The plants were employed for testing when they reached the second or third true leaf stage.
(§3) Emulsifiable concentrates of each of each pyridine carboxylate herbicide (Compound A or Compound B) were prepared at 100 grams acid equivalent per liter (g ae/L). The emulsifiable concentrates also included a safener, at 120 grams active ingredient per liter (g ai/L). An aliquot of each emulsifiable concentrate was placed in a 25 mL glass vial and diluted with an aqueous mixture of 1.25% (v/v) ACTIROB® B esterified rapeseed oil (Bayer Crop Science, Research Triangle Park, N.C., USA) or MSO® Concentrate with LECI-TECH® methylated soybean oil (Loveland Products, Loveland, Colo., USA) to obtain concentrated stock solutions at the highest application rate for each herbicide, based upon a 12 milliliter (mL) application volume at a rate of 187 liters per hectare (L/ha). The concentrated stock solutions were further diluted with an aqueous mixture of 1.25% v/v ACTIROB® B or MSO® Concentrate with LECI-TECH® to obtain stock solutions at reduced application rates for each herbicide. Spray solutions of the herbicide combinations (Compound A or Compound B plus the CBI herbicide) were prepared by adding weighed amounts or aliquots of the CBI herbicide to the stock solutions of Compound A or Compound B to form 12-mL spray solutions in two-way combinations.
(§4) The spray solutions were applied to the plant material with an overhead Mandel track sprayer equipped with 8002E nozzles calibrated to deliver 187 L/ha over an application area of 0.503 square meters (m^2) at a spray height of 18 inches (43 centimeters (cm)) above the average plant canopy. Control plants were sprayed in the same manner with the solvent blank. All pyridine carboxylate herbicide (component a) application rates are given as “g ae/ha” and all CBI herbicide (component b) application rates are given as “g ai/ha.”
(§5) The treated plants and control plants were placed in a greenhouse as described above and watered by sub-irrigation to prevent wash-off of the test compounds. After 20-22 d, the condition of the test plants as compared with that of the control plants was determined visually and scored on a scale of 0 to 100 percent where 0 corresponds to no injury and 100 corresponds to complete kill.

[2] = tested on: Brassica napus (winter rape); test: as above; details: BRSNW
From the text: as §1, §2, §3, §4, §5

[3] = tested on: Stellaria media (chickweed); test: as above; details: Table 1, STEME
From the text: as §1, §2, §3, §4, §5

[4] = tested on: Setaria faberi (giant foxtail); test: as above; details: SETFA
From the text: as §1, §2, §3, §4, §5

[5] = tested on: Echinochloa crus-galli (barnyard grass); test: as above; details: ECHCG
From the text: as §1, §2, §3, §4, §5

[6] = tested on: Cyperus esculentus (nutsedge); test: as above; details: Table 1, CYPES
From the text: as §1, §2, §3, §4, §5

[7] = tested on: Rumex obtusifolius (broad-leaf dock); test: as above; details: Table 1, RUMOB
From the text: as §1, §2, §3, §4, §5

[8] = tested on: Amaranthus retroflexus (pigweed); test: as above; details: AMARE
From the text: as §1, §2, §3, §4, §5

[9] = tested on: Chenopodium album L. (common lambsquarters); test: as above; details: CHEAL
From the text: as §1, §2, §3, §4, §5

[10] = tested on: Helianthus annuus (common sunflower); test: as above; details: Table 1, HELAN
From the text: as §1, §2, §3, §4, §5

[11] = tested on: Triticum aestivum (spring wheat); details: TRZAS
From the text: as §1, §2, §3, §4, §5

[12] = tested on: Hordeum vulgare (spring barley); details: HORVS
From the text: as §1, §2, §3, §4, §5

Question: N#CCOC(=O)c1nc(-c2ccc3cc[nH]c3c2F)c(F)c(N)c1Cl [Compound A, cyanomethyl 4-amino-3-chloro-5-fluoro-6-(7-fluoro-1H-indol-6-yl)pyridine-2-carboxylate] was tested. Which “Obs % visual injury” value ([1]; Table 3, Compound A 7.5 g/ha) did it give?
Answer: Its value is 55%.

Question: What about the “Obs % visual injury” value ([1]; Table 3, Compound A 10 g/ha) of the same compound?
Answer: The value was 58%.

Question: And the “Obs % visual injury” value ([1]; Table 3, Compound A 15 g/ha)?
Answer: Its value is 65%.

Question: What about the “Obs % visual injury” value ([1]; Table 4, Compound A 7.5 g/ha) of the same compound?
Answer: Its value is 55%.

Question: And the “Obs % visual injury” value ([1]; Table 4, Compound A 10 g/ha)?
Answer: Its value is 58%.

Question: What about the “Obs % visual injury” value ([1]; Table 4, Compound A 15 g/ha) of the same compound?
Answer: Its value is 65%.

Question: What about the “Obs % visual injury” value ([2]; Table 3, Compound A 7.5 g/ha) of the same compound?
Answer: The value was 60%.

Question: And the “Obs % visual injury” value ([2]; Table 3, Compound A 10 g/ha)?
Answer: Its value is 60%.

Question: And the “Obs % visual injury” value ([2]; Table 3, Compound A 15 g/ha)?
Answer: Its value is 75%.

Question: And the “Obs % visual injury” value ([2]; Table 4, Compound A 7.5 g/ha)?
Answer: The value was 60%.

Question: What about the “Obs % visual injury” value ([2]; Table 4, Compound A 10 g/ha) of the same compound?
Answer: Its value is 60%.

Question: And the “Obs % visual injury” value ([2]; Table 4, Compound A 15 g/ha)?
Answer: The value was 75%.

Question: What about the “Obs % visual injury” value ([3]; Compound A 7.5 g/ha) of the same compound?
Answer: Its value is 89%.

Question: And the “Obs % visual injury” value ([3]; Compound A 10 g/ha)?
Answer: The value was 90%.

Question: What about the “Obs % visual injury” value ([4]; Table 1, Compound A 7.5 g/ha) of the same compound?
Answer: The value was 78%.

Question: And the “Obs % visual injury” value ([4]; Table 1, Compound A 10 g/ha)?
Answer: The value was 80%.

Question: What about the “Obs % visual injury” value ([4]; Table 2, Compound A 7.5 g/ha) of the same compound?
Answer: Its value is 70%.

Question: What about the “Obs % visual injury” value ([4]; Table 2, Compound A 10 g/ha) of the same compound?
Answer: The value was 70%.

Question: And the “Obs % visual injury” value ([5]; Table 1, Compound A 7.5 g/ha)?
Answer: Its value is 88%.

Question: And the “Obs % visual injury” value ([5]; Table 1, Compound A 10 g/ha)?
Answer: Its value is 80%.

Question: What about the “Obs % visual injury” value ([5]; Table 2, Compound A 7.5 g/ha) of the same compound?
Answer: The value was 73%.

Question: What about the “Obs % visual injury” value ([5]; Table 2, Compound A 10 g/ha) of the same compound?
Answer: Its value is 78%.

Question: And the “Obs % visual injury” value ([6]; Compound A 7.5 g/ha)?
Answer: Its value is 30%.

Question: And the “Obs % visual injury” value ([6]; Compound A 10 g/ha)?
Answer: The value was 8%.

Question: What about the “Obs % visual injury” value ([7]; Compound A 7.5 g/ha) of the same compound?
Answer: Its value is 20%.

Question: What about the “Obs % visual injury” value ([7]; Compound A 10 g/ha) of the same compound?
Answer: Its value is 13%.

Question: And the “Obs % visual injury” value ([8]; Table 1, Compound A 7.5 g/ha)?
Answer: The value was 88%.

Question: What about the “Obs % visual injury” value ([8]; Table 1, Compound A 10 g/ha) of the same compound?
Answer: Its value is 88%.

Question: What about the “Obs % visual injury” value ([8]; Table 3, Compound A 7.5 g/ha) of the same compound?
Answer: The value was 78%.

Question: What about the “Obs % visual injury” value ([8]; Table 3, Compound A 10 g/ha) of the same compound?
Answer: The value was 78%.

Question: And the “Obs % visual injury” value ([8]; Table 3, Compound A 15 g/ha)?
Answer: The value was 83%.

Question: What about the “Obs % visual injury” value ([8]; Table 4, Compound A 7.5 g/ha) of the same compound?
Answer: Its value is 78%.

Question: And the “Obs % visual injury” value ([8]; Table 4, Compound A 10 g/ha)?
Answer: Its value is 78%.

Question: And the “Obs % visual injury” value ([8]; Table 4, Compound A 15 g/ha)?
Answer: The value was 83%.

Question: What about the “Obs % visual injury” value ([9]; Table 1, Compound A 7.5 g/ha) of the same compound?
Answer: Its value is 98%.

Question: What about the “Obs % visual injury” value ([9]; Table 1, Compound A 10 g/ha) of the same compound?
Answer: The value was 93%.

Question: What about the “Obs % visual injury” value ([9]; Table 3, Compound A 7.5 g/ha) of the same compound?
Answer: The value was 70%.

Question: What about the “Obs % visual injury” value ([9]; Table 3, Compound A 10 g/ha) of the same compound?
Answer: The value was 78%.

Question: What about the “Obs % visual injury” value ([9]; Table 3, Compound A 15 g/ha) of the same compound?
Answer: The value was 83%.

Question: What about the “Obs % visual injury” value ([9]; Table 4, Compound A 7.5 g/ha) of the same compound?
Answer: Its value is 70%.

Question: What about the “Obs % visual injury” value ([9]; Table 4, Compound A 10 g/ha) of the same compound?
Answer: The value was 78%.

Question: And the “Obs % visual injury” value ([9]; Table 4, Compound A 15 g/ha)?
Answer: Its value is 83%.

Question: And the “Obs % visual injury” value ([10]; Compound A 7.5 g/ha)?
Answer: The value was 90%.

Question: And the “Obs % visual injury” value ([10]; Compound A 10 g/ha)?
Answer: Its value is 89%.

Question: And the “Obs % visual injury” value ([11]; Table 3, Compound A 7.5 g/ha)?
Answer: The value was 3%.

Question: And the “Obs % visual injury” value ([11]; Table 3, Compound A 10 g/ha)?
Answer: The value was 3%.

Question: What about the “Obs % visual injury” value ([11]; Table 3, Compound A 15 g/ha) of the same compound?
Answer: Its value is 0%.

Question: What about the “Obs % visual injury” value ([11]; Table 4, Compound A 7.5 g/ha) of the same compound?
Answer: Its value is 3%.

Question: What about the “Obs % visual injury” value ([11]; Table 4, Compound A 10 g/ha) of the same compound?
Answer: Its value is 3%.

Question: What about the “Obs % visual injury” value ([11]; Table 4, Compound A 15 g/ha) of the same compound?
Answer: Its value is 0%.

Question: What about the “Obs % visual injury” value ([12]; Table 3, Compound A 7.5 g/ha) of the same compound?
Answer: The value was 8%.

Question: And the “Obs % visual injury” value ([12]; Table 3, Compound A 10 g/ha)?
Answer: Its value is 5%.

Question: What about the “Obs % visual injury” value ([12]; Table 3, Compound A 15 g/ha) of the same compound?
Answer: Its value is 3%.

Question: What about the “Obs % visual injury” value ([12]; Table 4, Compound A 7.5 g/ha) of the same compound?
Answer: Its value is 8%.

Question: What about the “Obs % visual injury” value ([12]; Table 4, Compound A 10 g/ha) of the same compound?
Answer: The value was 5%.

Question: What about the “Obs % visual injury” value ([12]; Table 4, Compound A 15 g/ha) of the same compound?
Answer: Its value is 3%.
